Values after ≈ are worked out from the molar mass of the structure shown. Where two headings read alike, the source gives them in different places.
Assays:
[1] = test system: cell lines with mutations in downstream Wnt signaling; assay: Proliferation, 5 days, ATPLite; assay type: cell-based, human; conditions: concentration-series
Procedure: (§1) Cells were treated with a concentration-series of RXC004 for 5 days and proliferation measured using ATPLite 1-Step Reagent (Perkin Elmer #6016731). Data were normalized to DMSO-treated controls and IC50 values determined. Colorectal cell lines used were: WiDR (APC-E853*/T1556fs*3), HCT116 (β-cateninΔSer45; RNF43-R117fs*41), JVE-109 (RNF43-V211fs*47/G659fs*41), SNU-1411 (PRPTK-RSPO-3 fusion). Pancreatic cell lines were: CAPAN-2 (RNF43-R330fs*89), AsPC1 (RNF43-S720*), and HPAF-II (RNF43-E174*). Cell lines were from ATCC, except for SNU-1411 (Korean Cell Line Bank) and cultured for no more than 20 passages. Cells were routinely tested for Mycoplasma by the MycoAlert test (Lonza) and authenticated using short tandem repeat fingerprinting.

[2] = test system: cell lines with RNF43 mutations and RSPO3 fusions; assay: Proliferation, 5 days, ATPLite; assay type: cell-based, human; conditions: concentration-series
Procedure: as §1

[3] = test system: small intestine of SCID-Beige mice; assay: In vivo toxicity in mice, 28 days (small intestine H&E, Ki67, body weight); parameters: species or system mouse (SCID-Beige)
Procedure: Groups of 9–10 SCID-Beige mice were dosed at Translational Drug Discovery with vehicle, 1.5 mg/kg or 5 mg/kg RXC004 orally twice daily, or 5 mg/kg RXC004 orally once daily, for 28 days. Formulation: 5% DMSO, 95% hydroxyl propyl beta cyclodextrin (25% w/v). Formalin-fixed, paraffin-embedded (FFPE) samples from the small intestine were assessed by hematoxylin and eosin (H&E) and/or Ki67 staining at Histologix.

B16F10 tumors = assay: B16F10/SCID-Beige model; assay type: in vivo, mouse (SCID-Beige); conditions: 5 mg/kg once daily for 21 days, immunocompromised mice
Procedure: B16F10/SCID-Beige model was performed at Axis Bioservices. Mouse B16F10 cells (2 × 10^5) were subcutaneously implanted in flanks of the immunocompromised male SCID-Beige mice. Treatment with RXC004 (5 mg/kg once daily) was initiated at day 3, once the tumors were palpable, and tumor volume assessed over time.

Lipophilicity (logD7.4) = assay type: physicochemical
Procedure: Lipophilicity (logD7.4): A total of 30 μL of a 20 mmol/L stock solution of RXC004 was added to a vial containing 1.5 mL of pH7.4 phosphate buffer saturated octanol and 1.5 mL of octanol-saturated pH7.4 phosphate buffer, shaken and centrifuged to ensure phase separation. logD7.4 was calculated as the logarithm of the ratio of the concentration of RXC004 (measured by LC-UV in octanol vs. buffer phase).

[4] = pKa by fast UV (spectrometric) technique; assay type: physicochemical; conditions: 25°C; for pKa: methanol-water mixture
Procedure: pKas were determined using the fast UV (spectrometric) technique. Samples were titrated under methanol-water mixture between pH2.0 and pH12.0 at 30–15 μmol/L at 25°C. The ionic strength was 0.192 mol/L (KCl). Aqueous pKas were determined per Yasuda-Shedlovsky ([17]).

HCT116 cells = assay: In vitro glucose uptake; assay type: cell-based, human; conditions: HCT116, RXC004 100 nmol/L, 48 hours
Procedure: (§2) SNU-1411, HPAF-II, and HCT116 cells were treated in vitro for 48 hours with RXC004 (100 nmol/L), Latrunculin A (Abcam #ab144290; 500 nmol/L), or DMSO prior to analysis using the Glucose Uptake Glo Assay Kit (Promega #J1341). The ATPlite assay was used to control for cell viability, confirming RXC004 has no effect on proliferation at this 48 hours timepoint.

SNU-1411 cells = assay: In vitro glucose uptake; assay type: cell-based, human; conditions: Homo sapiens; SNU-1411, RXC004 100 nmol/L, 48 hours
Procedure: as §2

HPAF-II cells = assay: In vitro glucose uptake; assay type: cell-based, human; conditions: Homo sapiens, RXC004 100 nmol/L, 48 hours
Procedure: as §2

Microsomal stability = assay type: in vitro ADME, rat (Sprague Dawley); conditions: Rat, 1 μmol/L
Procedure: (§3) Metabolic stability: liver microsomes and hepatocytes from human, mouse (CD1), rat (Sprague Dawley) and dog (Beagle) were obtained from Invitrogen. RXC004 (1 μmol/L) was incubated at 37°C with microsomes (0.5 mg · mL^−1) or hepatocytes (0.5 × 10^6 cells · mL^−1). Aliquots were removed at 0–45 minutes and RXC004 concentrations determined by LC/MS-MS analysis. Half-life (T1/2) and intrinsic clearance (CLint) were calculated as described in ref. [18].

Hepatocyte stability = assay type: in vitro ADME; conditions: Human, 1 μmol/L
Procedure: as §3

[5] = Permeability in Caco-2 cells; assay type: in vitro ADME; conditions: human
Procedure: Permeability of RXC004 was assessed in MDR1-MDCKII (Netherlands Cancer Institute) and Caco-2 cells (Merck Life Sciences). RXC004 (10 μmol/L) was added to either apical or basolateral chamber for 2 hours at 37°C, then an aliquot from the opposite side of the monolayer was removed and quantified by LC/MS-MS. Apparent permeability (Papp) was calculated according to standard practice ([20]).

Aqueous solubility = assay type: physicochemical; conditions: pH 7.4 buffer, 25°C
Procedure: Following filtration under positive pressure, compound concentration in solution was assessed by high-performance liquid chromatography coupled to an ultraviolet detector (LC-UV).

## Cc1c(-c2ccnc(C(F)(F)F)c2)ncn1CC(=O)Nc1ccc(-c2cnccn2)cn1 [RXC004, 2-[5-methyl-4-[2-(trifluoromethyl)-4-pyridyl]imidazol-1-yl]-N-(5-pyrazin-2-yl-2-pyridyl)acetamide]
[1]
  proliferation: had no effect
[2]
  proliferation: inhibited proliferation
[3]; 1.5 mg/kg twice daily
  Ki67 proliferation marker in intestinal crypts: no effect on the Ki67 proliferation marker
  villi architecture: No effects
[3]; 5 mg/kg once daily
  villi architecture: No effects
[3]; 5 mg/kg twice daily
  Ki67 proliferation marker in intestinal crypts: clear decrease
  body weight: loss of body weight
[3]; 5 mg/kg twice daily, only in some animals
  villi architecture: Disruption of villi architecture
B16F10 tumors
  tumor growth: did not reduce tumor growth
Lipophilicity (logD7.4); octanol/phosphate buffer, pH 7.4, pH 7.4, octanol/phosphate buffer, read-out: Measured log D7.4
  logD: 2.4
Lipophilicity (logD7.4); pH 7.4, octanol/phosphate buffer
  Measured log D7.4: 2.44
[4]
  pKa (most basic): 3.84
[4]; read-out: pKa (most acidic)
  pKa: 11.2
[4]; read-out: pKa (most basic)
  pKa: 3.8
HCT116 cells
  glucose uptake: had no effect
SNU-1411 cells
  inhibition at 0.1 µM: > 50%
HPAF-II cells
  inhibition at 0.1 µM: > 50%
Microsomal stability
  Microsomal stability: CLint: 7.8 μL minute^−^1 · mg^−^1
Hepatocyte stability
  Hepatocyte stability: CLint: <3.0 μL minute^−^1 · 10^6 cells^−^1
[5]; apical to basolateral, read-out: Caco-2 PappA-B
  Papp A→B at 2 h, 10 μmol/L: 23.6 ×10⁻⁶ cm/s
[5]; basolateral to apical, read-out: Caco-2 PappB-A
  Papp B→A at 2 h, 10 μmol/L: 21.8 ×10⁻⁶ cm/s
Aqueous solubility
  solubility at 24 h: 56 µM (≈ 24.6 µg/mL)

Reference: publication PMC10010340, “The Wnt Pathway Inhibitor RXC004 Blocks Tumor Growth and Reverses Immune Evasion in Wnt Ligand–dependent Cancer Models” (Cancer Research Communications, 2022)
